Patent US20260224527A1, “USES OF ANTI-PSYCHOTIC AGENTS” (LB PHARMACEUTICALS INC., priority 2023, published 2026)

Experiments:
[1] = test system: PCP-treated rats; assay: Social interaction (sniffing index, SI) assay in scPCP model; assay type: in vivo, rat
Experimental: (§1) Differences in discrimination index ((time spent exploring novel−time spent exploring familiar)/total exploration time) are depicted. scPCP rats treated with risperidone (Risp) served as a positive control. […] Rats treated with cariprazine (Cari) served as a positive control.
The sniffing component of the SI assay was carried out as described in (J. C. Neil, S. Barnes, S. Cook, B. Grayson, N. F. Iris, S. L. McLean, S. Snigdha, L. Rajagopa, and M. K. Harte, “Animal models of cognitive dysfunction and negative symptoms of schizophrenia: focus on NMDA receptor antagonism”, Pharmacol. Ther., 2010, 128, 419-423) in groups of 12 rats.

[2] = test system: PCP-treated rats; assay: Novel Object Recognition (NOR) assay in scPCP model; assay type: in vivo, rat; conditions: for effect on Discrimination Index (DI): 3 hr post-dose
Experimental: as §1
Efficacy of LB-102, LB-103, and LB-104 at different doses was evaluated in rats in a Novel Object Recognition (NOR) assay, a well-established model recapitulating cognitive and negative aspects of the PANSS scale of schizophrenia. In this assay, animals were treated for several weeks with a low dose of phencyclidine (PCP) to impair the ability of the rat to discern between novel and familiar objects. Typically rats, like humans, would spend more time exploring a novel object than a familiar one.
In this NOR study the efficacies of LB-102, LB-103, and LB-104 were compared to known antipsychotic risperidone for its ability to restore normal differentiation between novel and familiar object exploration in PCP-treated rats. Cognitive measurements were taken at 3 hr post-dose for LB-102, LB-103, and LB-104 and 30 min for risperidone. The endpoint of this study was the Discrimination Index (DI), a normalized ratio of time spent exploring a novel object compared to a familiar one.

[3] = test system: serotonin receptor subtypes; conditions: cited from earlier work
[4] = biological target: D5 receptor subtype (Homo sapiens, UniProt P21918); conditions: cited from earlier work
[5] = test system: muscarinic receptors; conditions: cited from earlier work
[6] = test system: alpha-adrenergic receptor subtypes; conditions: cited from earlier work
[7] = 2014 study, rank among 30 psychiatric drugs; cited from earlier work
[8] = biological target: T1, D4 receptor subtype (Homo sapiens, UniProt P21917); conditions: cited from earlier work
T1 sequence (P21917 1-419): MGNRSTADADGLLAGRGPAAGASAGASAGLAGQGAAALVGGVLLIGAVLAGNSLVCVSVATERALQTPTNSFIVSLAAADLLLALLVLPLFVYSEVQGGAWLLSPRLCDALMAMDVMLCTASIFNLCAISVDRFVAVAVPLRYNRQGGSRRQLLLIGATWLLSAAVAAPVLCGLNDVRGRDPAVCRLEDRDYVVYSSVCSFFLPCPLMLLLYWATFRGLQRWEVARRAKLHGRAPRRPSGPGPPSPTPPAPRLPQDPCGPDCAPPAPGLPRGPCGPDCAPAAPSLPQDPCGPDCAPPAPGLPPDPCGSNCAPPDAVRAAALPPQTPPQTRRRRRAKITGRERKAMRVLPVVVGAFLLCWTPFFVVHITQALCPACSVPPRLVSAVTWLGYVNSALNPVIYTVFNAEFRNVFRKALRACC

[9] = biological target: D1 receptor subtype (Homo sapiens, UniProt P21728); conditions: cited from earlier work
[10] = test system: sigma sites; conditions: cited from earlier work
[11] = biological target: 5-HT2a receptor (Homo sapiens, UniProt P28223); conditions: compared to other antipsychotics; cited from earlier work
[12] = test system: histamine receptor subtypes; conditions: cited from earlier work

Chain of 5-HT2a receptor (P28223 whole entry): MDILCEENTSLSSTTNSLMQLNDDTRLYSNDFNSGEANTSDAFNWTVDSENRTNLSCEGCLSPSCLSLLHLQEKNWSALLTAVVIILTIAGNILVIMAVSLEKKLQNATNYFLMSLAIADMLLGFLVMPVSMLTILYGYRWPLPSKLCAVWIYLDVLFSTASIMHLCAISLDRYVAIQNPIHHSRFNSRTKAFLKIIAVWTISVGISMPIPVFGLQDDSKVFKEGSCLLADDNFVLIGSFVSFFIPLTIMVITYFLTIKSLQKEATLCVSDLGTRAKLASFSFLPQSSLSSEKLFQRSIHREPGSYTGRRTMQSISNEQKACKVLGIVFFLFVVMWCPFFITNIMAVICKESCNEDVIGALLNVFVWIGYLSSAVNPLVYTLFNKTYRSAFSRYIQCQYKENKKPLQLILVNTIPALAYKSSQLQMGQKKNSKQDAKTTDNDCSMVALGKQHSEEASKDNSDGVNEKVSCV
Chain of D5 receptor subtype (P21918 whole entry): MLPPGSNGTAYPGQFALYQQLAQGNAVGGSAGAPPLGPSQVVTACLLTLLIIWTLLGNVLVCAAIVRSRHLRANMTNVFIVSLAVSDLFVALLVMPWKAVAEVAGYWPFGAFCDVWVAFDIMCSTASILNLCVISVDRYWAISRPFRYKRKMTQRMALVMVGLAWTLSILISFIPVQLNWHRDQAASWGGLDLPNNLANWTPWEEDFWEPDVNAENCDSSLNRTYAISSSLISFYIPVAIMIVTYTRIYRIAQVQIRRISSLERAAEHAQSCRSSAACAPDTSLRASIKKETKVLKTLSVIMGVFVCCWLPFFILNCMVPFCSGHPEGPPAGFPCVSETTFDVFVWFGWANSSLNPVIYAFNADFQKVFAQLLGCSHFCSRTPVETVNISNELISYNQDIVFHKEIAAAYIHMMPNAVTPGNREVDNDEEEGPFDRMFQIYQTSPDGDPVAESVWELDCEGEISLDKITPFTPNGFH
Chain of D1 receptor subtype (P21728 whole entry): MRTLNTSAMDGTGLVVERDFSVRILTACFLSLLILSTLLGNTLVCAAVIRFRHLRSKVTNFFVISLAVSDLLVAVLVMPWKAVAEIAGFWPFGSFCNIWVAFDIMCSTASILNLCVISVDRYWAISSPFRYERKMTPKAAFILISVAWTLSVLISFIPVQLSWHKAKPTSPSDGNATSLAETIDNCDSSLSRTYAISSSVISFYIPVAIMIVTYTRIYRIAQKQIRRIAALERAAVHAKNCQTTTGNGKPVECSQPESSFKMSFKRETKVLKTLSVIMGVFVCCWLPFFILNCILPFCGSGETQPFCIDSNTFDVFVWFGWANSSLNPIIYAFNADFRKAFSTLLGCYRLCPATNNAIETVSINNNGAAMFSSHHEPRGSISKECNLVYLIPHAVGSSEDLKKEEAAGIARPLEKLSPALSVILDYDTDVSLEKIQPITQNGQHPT

CCN1CCCC1CNC(=O)c1cc(S(=O)(=O)CC)c(NC)cc1OC (racemic) [LB-102]
effect on sniffing index (social interaction) ([1]; 5 mg (printed)): significant effect
effect on sniffing index (social interaction) ([1]; 45 mg/kg): significant effect
NOR result compared to LB-104 [2]: comparable results
effect on Discrimination Index (DI) ([2]; 15 mg/kg): significant improvement
effect on Discrimination Index (DI) ([2]; 45 mg/kg): significant improvement

CCN1CCCC1CNC(=O)c1cc(S(=O)(=O)CC)c(N)cc1OC (stereo not drawn) [Amisulpride, 4-amino-N-(((1-ethyl-2-pyrrolidinyl)methyl)-5-(ethylsulfonyl))-2-methoxybenzamide]
affinity [3]: low affinity
affinity [4]: without any affinity
affinity [5]: low affinity
affinity [6]: low affinity
passive diffusion across a PAMPA membrane (Pe) [7]: lowest of 30 psychiatric drugs tested
affinity [8]: without any affinity
affinity [9]: without any affinity
affinity [10]: low affinity
activity at the 5-HT2a receptor [11]: not noted to have any activity
affinity [12]: low affinity

CCN1CCC[C@@H]1CNC(=O)c1cc(S(=O)(=O)CC)c(NC)cc1OC [LB-104]
effect on sniffing index (social interaction) ([1]; 45 mg/kg): significant effect
effect on Discrimination Index (DI) ([2]; 15 mg/kg): significant improvement
effect on Discrimination Index (DI) ([2]; 45 mg/kg): significant improvement
